# Residues, ends and D or L forms follow the SMILES beside them. *: point of attachment. X13 = Cc1cc(COC(=O)N(C)Cc2ccc(-c3[nH]c4cc(F)cc5c4c3CCNC5=O)cc2)cc(C)c1S*; X17 = C[C@@H](COC(=O)N1CCC[C@@H](c2ccc(-n3cc4cccc(C(N)=O)c4n3)cc2)C1)S*; X5 = CNCc1ccc(-c2c3c4c(cc(F)cc4n2[C@H](CC(C)C)NC(=O)OCCS*)C(=O)NCC3)cc1; X25 = COC[C@@H](CS*)OC(=O)N(C)Cc1ccc(-c2[nH]c3cc(F)cc4c3c2CCNC4=O)cc1
# Target: PARP (Homo sapiens, UniProt P09874)
# Test: Enzymatic Assay 2: HT Universal Chemiluminescent PARP Assay of cleaved compounds;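 further: PARP reaction with activated DNA run 1 h at room temperature, product detected via streptavidin-HRP and luminescence endpoint reading on a plate reader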
# Settings: read-out: IC50 Enzymatic Assay 2; Examples cleaved per Example A (crude cleavage solution); R^8H starting materials as such
# PARP, sequence (P09874 whole entry): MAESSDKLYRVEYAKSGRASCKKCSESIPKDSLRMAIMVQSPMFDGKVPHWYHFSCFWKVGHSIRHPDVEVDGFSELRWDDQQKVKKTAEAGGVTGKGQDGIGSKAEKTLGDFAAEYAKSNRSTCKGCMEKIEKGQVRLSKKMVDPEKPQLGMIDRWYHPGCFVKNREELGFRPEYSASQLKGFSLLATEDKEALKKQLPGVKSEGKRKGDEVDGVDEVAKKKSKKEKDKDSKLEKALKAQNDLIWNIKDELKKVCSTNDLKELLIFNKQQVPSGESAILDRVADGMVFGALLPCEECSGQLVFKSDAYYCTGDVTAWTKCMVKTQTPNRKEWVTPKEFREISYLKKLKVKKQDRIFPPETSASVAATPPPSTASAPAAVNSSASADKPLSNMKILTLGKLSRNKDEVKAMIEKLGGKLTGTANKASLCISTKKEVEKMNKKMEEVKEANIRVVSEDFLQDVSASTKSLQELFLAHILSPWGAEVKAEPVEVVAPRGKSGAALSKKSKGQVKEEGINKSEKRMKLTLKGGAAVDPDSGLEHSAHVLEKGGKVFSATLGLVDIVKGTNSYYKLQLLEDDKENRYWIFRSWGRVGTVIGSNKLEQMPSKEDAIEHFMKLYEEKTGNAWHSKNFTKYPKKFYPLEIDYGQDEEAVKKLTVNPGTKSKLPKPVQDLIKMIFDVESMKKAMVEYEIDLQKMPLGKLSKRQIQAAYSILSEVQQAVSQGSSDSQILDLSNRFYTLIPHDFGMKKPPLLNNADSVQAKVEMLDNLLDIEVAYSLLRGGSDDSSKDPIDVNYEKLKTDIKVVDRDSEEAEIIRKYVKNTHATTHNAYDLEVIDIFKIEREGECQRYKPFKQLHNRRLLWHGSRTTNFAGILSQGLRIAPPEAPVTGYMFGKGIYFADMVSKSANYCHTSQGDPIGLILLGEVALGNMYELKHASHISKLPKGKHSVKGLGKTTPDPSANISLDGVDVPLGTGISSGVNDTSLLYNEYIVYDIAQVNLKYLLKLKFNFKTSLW
compound,measurement,value
CC[C@H](C)[C@H](NC(=O)[C@@H]1CCCN1C(=O)[C@H](CC(N)=O)NC(=O)[C@H](CCC(N)=O)NC(=O)[C@H](CCC(=O)O)NC(=O)[C@H](C)N)C(=O)N[C@@H](Cc1ccc(O)cc1)C(=O)N[C@@H](Cc1c[nH]c2ccccc12)C(=O)N[C@@H](C)C(=O)N[C@@H](CCCNC(=N)N)C(=O)N[C@@H](Cc1ccc(O)cc1)C(=O)N[C@@H](C)C(=O)N[C@@H](CC(=O)O)C(=O)N[C@@H](Cc1c[nH]c2ccccc12)C(=O)N[C@@H](CC(C)C)C(=O)N[C@@H](Cc1ccccc1)C(=O)N[C@H](C(=O)N[C@H](C(=O)N1CCC[C@H]1C(=O)N[C@@H](CC(C)C)C(=O)N[C@@H](CC(C)C)C(=O)N[C@@H](CC(C)C)C(=O)N[C@@H](CC(C)C)C(=O)N[C@@H](CC(=O)O)C(=O)N[C@@H](CC(C)C)C(=O)N[C@@H](C)C(=O)N[C@@H](CC(C)C)C(=O)N[C@@H](CC(C)C)C(=O)N[C@H](C(=O)N[C@@H](CC(=O)O)C(=O)N[C@@H](C)C(=O)N[C@@H](CC(=O)O)C(=O)N[C@@H](CCC(=O)O)C(=O)N[C@@H](CSS[C@@H](C)COC(=O)N1CCC[C@@H](c2ccc(-n3cc4cccc(C(N)=O)c4n3)cc2)C1)C(=O)NCC(=O)O)C(C)C)[C@@H](C)O)[C@@H](C)O [Example 48] (H-AEQNPIYWARYADWLFTTPLLLLDLALLVDADEC(X17)G-OH; N-terminus and C-terminus assumed),IC50,2.1 nM
CC[C@H](C)[C@H](NC(=O)[C@@H]1CCCN1C(=O)[C@H](CC(N)=O)NC(=O)[C@H](CCC(N)=O)NC(=O)[C@H](CCC(=O)O)NC(=O)[C@H](C)N)C(=O)N[C@@H](Cc1ccc(O)cc1)C(=O)N[C@@H](Cc1c[nH]c2ccccc12)C(=O)N[C@@H](C)C(=O)N[C@@H](CCCNC(=N)N)C(=O)N[C@@H](Cc1ccc(O)cc1)C(=O)N[C@@H](C)C(=O)N[C@@H](CC(=O)O)C(=O)N[C@@H](Cc1c[nH]c2ccccc12)C(=O)N[C@@H](CC(C)C)C(=O)N[C@@H](Cc1ccccc1)C(=O)N[C@H](C(=O)N[C@H](C(=O)N1CCC[C@H]1C(=O)N[C@@H](CC(C)C)C(=O)N[C@@H](CC(C)C)C(=O)N[C@@H](CC(C)C)C(=O)N[C@@H](CC(C)C)C(=O)N[C@@H](CC(=O)O)C(=O)N[C@@H](CC(C)C)C(=O)N[C@@H](C)C(=O)N[C@@H](CC(C)C)C(=O)N[C@@H](CC(C)C)C(=O)N[C@H](C(=O)N[C@@H](CC(=O)O)C(=O)N[C@@H](C)C(=O)N[C@@H](CC(=O)O)C(=O)N[C@@H](CCC(=O)O)C(=O)N[C@@H](CSSCCOC(=O)N[C@@H](CC(C)C)n1c(-c2ccc(CNC)cc2)c2c3c(cc(F)cc31)C(=O)NCC2)C(=O)NCC(=O)O)C(C)C)[C@@H](C)O)[C@@H](C)O [Example 34] (H-AEQNPIYWARYADWLFTTPLLLLDLALLVDADEC(X5)G-OH; N-terminus and C-terminus assumed),IC50,2.5 nM
CC(C)C[C@H](NC(=O)[C@H](Cc1ccc(O)cc1)NC(=O)[C@H](C)NC(=O)[C@H](CCCNC(=N)N)NC(=O)[C@H](Cc1c[nH]c2ccccc12)NC(=O)[C@@H]1CCCN1C(=O)[C@H](CC(N)=O)NC(=O)[C@H](CCC(N)=O)NC(=O)[C@H](CC(=O)O)NC(=O)[C@H](CC(=O)O)NC(=O)[C@H](C)N)C(=O)N[C@@H](CC(=O)O)C(=O)N[C@@H](CC(C)C)C(=O)N[C@@H](CC(C)C)C(=O)N[C@@H](Cc1ccccc1)C(=O)N1CCC[C@H]1C(=O)N[C@H](C(=O)N[C@@H](CC(=O)O)C(=O)N[C@H](C(=O)N[C@@H](CC(C)C)C(=O)N[C@@H](CC(C)C)C(=O)N[C@@H](CC(C)C)C(=O)N[C@@H](CC(=O)O)C(=O)N[C@@H](CC(C)C)C(=O)N[C@@H](CC(C)C)C(=O)N[C@@H](Cc1c[nH]c2ccccc12)C(=O)N[C@@H](CSSC1(COC(=O)N(C)Cc2ccc(-c3[nH]c4cc(F)cc5c4c3CCNC5=O)cc2)CCC1)C(=O)NCC(=O)O)[C@@H](C)O)[C@@H](C)O [Example 44],IC50,1.5 nM
CC(C)C[C@H](NC(=O)[C@H](Cc1ccc(O)cc1)NC(=O)[C@H](C)NC(=O)[C@H](CCCNC(=N)N)NC(=O)[C@H](Cc1c[nH]c2ccccc12)NC(=O)[C@@H]1CCCN1C(=O)[C@H](CC(N)=O)NC(=O)[C@H](CCC(N)=O)NC(=O)[C@H](CC(=O)O)NC(=O)[C@H](CC(=O)O)NC(=O)[C@H](C)N)C(=O)N[C@@H](CC(=O)O)C(=O)N[C@@H](CC(C)C)C(=O)N[C@@H](CC(C)C)C(=O)N[C@@H](Cc1ccccc1)C(=O)N1CCC[C@H]1C(=O)N[C@H](C(=O)N[C@@H](CC(=O)O)C(=O)N[C@H](C(=O)N[C@@H](CC(C)C)C(=O)N[C@@H](CC(C)C)C(=O)N[C@@H](CC(C)C)C(=O)N[C@@H](CC(=O)O)C(=O)N[C@@H](CC(C)C)C(=O)N[C@@H](CC(C)C)C(=O)N[C@@H](Cc1c[nH]c2ccccc12)C(=O)N[C@@H](CC(=O)O)C(=O)N[C@@H](C)C(=O)N[C@@H](CC(=O)O)C(=O)N[C@@H](CCC(=O)O)C(=O)N[C@@H](CSS[C@@H](C)COC(=O)N(C)Cc1ccc(-c2[nH]c3cc(F)cc4c3c2CCNC4=O)cc1)C(=O)NCC(=O)O)[C@@H](C)O)[C@@H](C)O [Example 23],IC50,2.5 nM
CC[C@H](C)[C@H](NC(=O)[C@@H]1CCCN1C(=O)[C@H](CC(N)=O)NC(=O)[C@H](CCC(N)=O)NC(=O)[C@H](CCC(=O)O)NC(=O)[C@H](C)N)C(=O)N[C@@H](Cc1ccc(O)cc1)C(=O)N[C@@H](Cc1c[nH]c2ccccc12)C(=O)N[C@@H](C)C(=O)N[C@@H](CCCNC(=N)N)C(=O)N[C@@H](Cc1ccc(O)cc1)C(=O)N[C@@H](C)C(=O)N[C@@H](CC(=O)O)C(=O)N[C@@H](Cc1c[nH]c2ccccc12)C(=O)N[C@@H](CC(C)C)C(=O)N[C@@H](Cc1ccccc1)C(=O)N[C@H](C(=O)N[C@H](C(=O)N1CCC[C@H]1C(=O)N[C@@H](CC(C)C)C(=O)N[C@@H](CC(C)C)C(=O)N[C@@H](CC(C)C)C(=O)N[C@@H](CC(C)C)C(=O)N[C@@H](CC(=O)O)C(=O)N[C@@H](CC(C)C)C(=O)N[C@@H](C)C(=O)N[C@@H](CC(C)C)C(=O)N[C@@H](CC(C)C)C(=O)N[C@H](C(=O)N[C@@H](CC(=O)O)C(=O)N[C@@H](C)C(=O)N[C@@H](CC(=O)O)C(=O)N[C@@H](CCC(=O)O)C(=O)N[C@@H](CSSC[C@H](COC)OC(=O)N(C)Cc1ccc(-c2[nH]c3cc(F)cc4c3c2CCNC4=O)cc1)C(=O)NCC(=O)O)C(C)C)[C@@H](C)O)[C@@H](C)O [Example 27] (H-AEQNPIYWARYADWLFTTPLLLLDLALLVDADEC(X25)G-OH; N-terminus and C-terminus assumed),IC50,3.9 nM
CC[C@H](C)[C@H](NC(=O)[C@@H]1CCCN1C(=O)[C@H](CC(N)=O)NC(=O)[C@H](CCC(N)=O)NC(=O)[C@H](CCC(=O)O)NC(=O)[C@H](C)N)C(=O)N[C@@H](Cc1ccc(O)cc1)C(=O)N[C@@H](Cc1c[nH]c2ccccc12)C(=O)N[C@@H](C)C(=O)N[C@@H](CCCNC(=N)N)C(=O)N[C@@H](Cc1ccc(O)cc1)C(=O)N[C@@H](C)C(=O)N[C@@H](CC(=O)O)C(=O)N[C@@H](Cc1c[nH]c2ccccc12)C(=O)N[C@@H](CC(C)C)C(=O)N[C@@H](Cc1ccccc1)C(=O)N[C@H](C(=O)N[C@H](C(=O)N1CCC[C@H]1C(=O)N[C@@H](CC(C)C)C(=O)N[C@@H](CC(C)C)C(=O)N[C@@H](CC(C)C)C(=O)N[C@@H](CC(C)C)C(=O)N[C@@H](CC(=O)O)C(=O)N[C@@H](CC(C)C)C(=O)N[C@@H](C)C(=O)N[C@@H](CC(C)C)C(=O)N[C@@H](CC(C)C)C(=O)N[C@H](C(=O)N[C@@H](CC(=O)O)C(=O)N[C@@H](C)C(=O)N[C@@H](CC(=O)O)C(=O)N[C@@H](CCC(=O)O)C(=O)N[C@@H](CSSc1c(C)cc(COC(=O)N(C)Cc2ccc(-c3[nH]c4cc(F)cc5c4c3CCNC5=O)cc2)cc1C)C(=O)NCC(=O)O)C(C)C)[C@@H](C)O)[C@@H](C)O [Example 31] (H-AEQNPIYWARYADWLFTTPLLLLDLALLVDADEC(X13)G-OH; N-terminus and C-terminus assumed),IC50,3.3 nM

# Reference: patent US12427157B2, “Methods for treatment of diseases involving acidic or hypoxic diseased tissues” (Cybrexa 1, Inc., priority 2018, dated 2025)
